Data from patent publication US20240409647A1, “BISPECIFIC BINDING PROTEINS AGAINST ALARMINS AND USES THEREOF” (SINOMAB BIOSCIENCE LIMITED, priority 2022, published 2024).

Tests used:
[1] = test system: ILC2 population in human PBMC; experiment: ILC2 cell population in human PBMC culture (flow cytometry); format: cell-based; set-up: key: −: no inhibition; +: weak; ++: moderate; +++: strong inhibition; settings: IL-2 (10 unit/mL) and three alarmins (10 ng/ml), 5 days
Source text: While alarmins are known to work in concert to enhance ILC2 and Th2 cell functions such as increase in cell population, steroids such as Dexamethasone (Dex) can negate these effects, resulting in the mitigation of type 2 immune responses [Jia, Yi et al. American Journal Of Respiratory Cell And Molecular Biology, vol. 55, 5 (2016): 675-683]. ILC2 and Th2 cell population can be determined by flow cytometry (BD FACSVerse) following standard procedures known to those skilled in the art.

[2] = test system: Human renal carcinoma cell line TK-10; experiment: IL-8 release from IL-25/TNFa-treated TK-10 cells; format: cell-based; settings: 1 mg/mL; 100 ng/mL IL-25, 10 ng/mL TNFa; 24 or 48 hours
Protocol: Human renal carcinoma cell line TK-10 (NCI-60, NIH, Bethesda, MD) treated with human IL-25 (PeproTech) and TNFa (R&D systems) can lead to the release of IL-8, also known as neutrophil chemotactic factor, an important mediator of the immune reaction in the innate immune system response. Accordingly, the inhibitory effects of SM17 and its murine counterpart (D9.2) on IL-8 release from IL-25/TNFa-treated TK-10 cells was evaluated. Briefly, SM17 (human IgG4 isotype, SinoMab BioScience Limited, Hong Kong, China), SM17-IgG1 (human IgG1 isotype, SinoMab BioScience Limited) and its murine counterpart (D9.2, SinoMab BioScience Limited) at a concentration of 1 mg/mL were added to 2×10^4 of TK-10 cells in the presence of 100 ng/mL of IL-25 and 10 ng/mL of TNFa. Non-specific human IgG1 (SM03, anti-CD22 chimeric antibody, SinoMab BioScience Limited) was used as the control antibody. Treated cells were cultured in OptiMEM (Thermo Fisher Scientific) for 24 or 48 hours at 37° C., and the level of IL-8 release in the culture supernatant was measured by standard ELISA assay using a commercial kit (R&D systems).

[3] = target: T1, TSLP (Homo sapiens, UniProt Q969D9); experiment: ELISA, antigen binding specificity of bsBp (TSLP); set-up: key: −: no binding; +: weak; ++: moderate; +++: strong binding; N/A refers to no binding affinity; settings: 33.5 nM; antigen coated at 2 μg/mL
T1 construct: purchased R&D systems
Protocol: Binding specificities of bsBp were evaluated by standard ELISA assays. Briefly, ELISA strips were coated with the respective target antigens, including IL17RB, IL-33, or TSLP (R&D systems) at a final concentration of 2 μg/mL. Bispecific antibodies were added at 33.5 nM to ELISA strips coated with the desired antigen. After incubation under room temperature for 2 hours, ELISA strips were washed five times with PBS. […] No result is provided for SM17-human TSLPR as the yield was too low to be detected.

[4] = test system: OVA-induced murine experimental asthma; experiment: Ovalbumin induced asthma on mice; format: in vivo, BALB/c mice
Protocol: Female BALB/c mice were induced with ovalbumin to elicit asthma like symptoms on mice. Briefly, mice were each sensitized with […] of ovalbumin (OVA) emulsified in 1 mg of aluminum hydroxide in a total volume of […] via intraperitoneal (IP) injections on Days 0 and 12. Mice were divided into 6 groups with 8 mice per group. Sensitized mice were exposed to aerosolized 5% OVA in sterile water, 20 minutes/day for six consecutive days (Days 19, 20, 21, 22, 23 and 24). Naïve mice inhaled the atomized water, 20 minutes/day, for six consecutive days. Mice were then i.v. injected with different concentrations of SM17, PBS (control), or dexamethasone (Dex) 4 hours before aerosol challenge, once per day (Day 19 to 24).
On day 25 (24 hours after the last OVA challenge), mice were anesthetized with Telazol® (20-40 mg/kg i.p.) and connected to a computer-controlled ventilator via the tracheal cannula. The time of expiration/inspiration and the respiratory rate were preset at 1.5:1 and 90/min, respectively. After a steady baseline was established, the resistance of the lung (RL) was recorded to evaluate the reaction of mice to a methacholine chloride gradient (0.025 and 0.05 mg/kg body weight); the methacholine chloride was injected into the vena jugulars externa at 5-min intervals via a fine needle. […] BALF from mice sacrificed on Day 25 was retrieved, and inflammatory cell number and the concentrations of inflammatory cytokine from BALF were determined.
Results are presented as means±SEM. One Way ANOVA, Dunnett's Multiple Comparison Test, *: P<0.05; **: P<0.01. Dex=Dexamethasone.

[5] = target: T2, hIL17RA (Homo sapiens, UniProt Q96F46); experiment: ELISA, SM17 specificity against IL-17 receptor subunits (IL17RA); format: binding; settings: 0.4 to 0.00064 μg/mL
T2 construct: purchased R&D systems
Protocol: A standard ELISA method was used to determine the specificity of SM17 against other human IL17 receptor subunits. Similarly, serially diluted SM17 at different concentrations (final concentrations at 0.4, 0.08, 0.016, 0.0032 and 0.00064 μg/m, respectively) was added to the wells of ELISA plates coated either with human IL-17 receptor subunits A, C, D and E (IL17RA, IL17RC, IL17RD, and IL17RE) (R&D systems).

SM17: humanized anti-IL17RB monoclonal antibody, human IgG4 isotype; HC SEQ ID NO: 32, LC SEQ ID NO: 33
Cell proliferation inhibition, ILC2 [1]: ++
release of IL-8 by IL-25/TNFa-induced TK-10 cells (in words) [2]: efficiently suppress the release of IL-8
Intensity of specific antigen binding, TSLP coated on ELISA strips [3]: +
airway hyperresponsiveness (in words) ([4]; 1 mg/kg or 3 mg/kg SM17 before each OVA aerosolization): mild but not significant abrogation in AHR
airway hyperresponsiveness (in words) ([4]; 5 mg/kg SM17 i.v. once per day, Day 19 to 24, methacholine challenge day 25): prevented airway hyperresponsiveness
number of pulmonary infiltrated eosinophils (in words) ([4]; SM17 at 5 mg/kg): significantly reduce the number of pulmonary infiltrated eosinophils
IL-13 levels in BALF (in words) ([4]; SM17 at 5 mg/kg, Day 25): significantly reduced the IL-13 levels
eosinophil number in BALF (in words) ([4]; SM17 at 5 mg/kg, Day 25): significantly reduced
IL-5 levels in BALF (in words) ([4]; SM17 at 1, 3 and 5 mg/kg, Day 25): significantly reduced the IL-5 levels in BALF
binding of SM17 to IL17RA (in words) [5]: No obvious bindings
